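The compound was tested at five concentrations on cells cultured in 96-well plates, with a 48-hour exposure period. The concentration for full growth arrest is given as TGI.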
Tests used:
Assay in all cases: NCI-60 cell line screen, 48 h
786-0 renal = system: 786-0 renal
A498 renal = system: A498 renal
A549 NSCLC = system: A549 NSCLC
ACHN renal = system: ACHN renal
BT-549 breast = system: BT-549 breast
CAKI-1 renal = system: CAKI-1 renal
CCRF-CEM leukemia = system: CCRF-CEM leukemia
COLO 205 colon = system: COLO 205 colon
DU-145 prostate = system: DU-145 prostate
HCC-2998 colon = system: HCC-2998 colon
HCT-116 colon = system: HCT-116 colon
HCT-15 colon = system: HCT-15 colon
HOP-62 NSCLC = system: HOP-62 NSCLC
HOP-92 NSCLC = system: HOP-92 NSCLC
HS 578T breast = system: HS 578T breast
HT29 colon = system: HT29 colon
IGROV1 ovarian = system: IGROV1 ovarian
K-562 leukemia = system: K-562 leukemia
KM12 colon = system: KM12 colon
LOX IMVI melanoma = system: LOX IMVI melanoma
M14 melanoma = system: M14 melanoma
MALME-3M melanoma = system: MALME-3M melanoma
MDA-MB-231 breast = system: MDA-MB-231 breast
MDA-MB-435 = system: MDA-MB-435
MDA-N = system: MDA-N
MOLT-4 leukemia = system: MOLT-4 leukemia
NCI-H226 lung = system: NCI-H226 lung
NCI-H23 lung = system: NCI-H23 lung
NCI-H460 lung = system: NCI-H460 lung
NCI-H522 lung = system: NCI-H522 lung
NCI/ADR-RES ovarian = system: NCI/ADR-RES ovarian
OVCAR-3 ovarian = system: OVCAR-3 ovarian
OVCAR-4 ovarian = system: OVCAR-4 ovarian
OVCAR-5 ovarian = system: OVCAR-5 ovarian
OVCAR-8 ovarian = system: OVCAR-8 ovarian
PC-3 prostate = system: PC-3 prostate
RPMI-8226 leukemia = system: RPMI-8226 leukemia
RXF 393 renal = system: RXF 393 renal
SF-268 CNS = system: SF-268 CNS
SF-295 CNS = system: SF-295 CNS
SK-MEL-2 melanoma = system: SK-MEL-2 melanoma
SK-MEL-28 melanoma = system: SK-MEL-28 melanoma
SK-MEL-5 melanoma = system: SK-MEL-5 melanoma
SK-OV-3 ovarian = system: SK-OV-3 ovarian
SN12C renal = system: SN12C renal
SNB-19 CNS = system: SNB-19 CNS
SNB-75 CNS = system: SNB-75 CNS
SW-620 colon = system: SW-620 colon
T-47D breast = system: T-47D breast
TK-10 renal = system: TK-10 renal
U251 CNS = system: U251 CNS
UACC-257 melanoma = system: UACC-257 melanoma
UACC-62 melanoma = system: UACC-62 melanoma
UO-31 renal = system: UO-31 renal
EKVX NSCLC = system: EKVX NSCLC
MCF7 breast = system: MCF7 breast
SF-539 CNS = system: SF-539 CNS
SR leukemia = system: SR leukemia

Q: How did the TGI (786-0 renal) turn out when `O=C(Cn1c2ccc(Br)cc2c2nc3ccccc3nc21)Nc1ccccc1` was run?
A: 28.7 µM

Q: And the TGI (A498 renal)?
A: > 100 µM

Q: What about the TGI (A549 NSCLC) of the same compound?
A: 38.2 µM

Q: What about the TGI (ACHN renal) of the same compound?
A: > 100 µM

Q: And the TGI (BT-549 breast)?
A: > 100 µM

Q: And the TGI (CAKI-1 renal)?
A: 86.9 µM

Q: What about the TGI (CCRF-CEM leukemia) of the same compound?
A: > 100 µM

Q: And the TGI (COLO 205 colon)?
A: > 100 µM

Q: And the TGI (DU-145 prostate)?
A: > 100 µM

Q: And the TGI (HCC-2998 colon)?
A: > 100 µM

Q: And the TGI (HCT-116 colon)?
A: 27.6 µM

Q: And the TGI (HCT-15 colon)?
A: 70.5 µM

Q: And the TGI (HOP-62 NSCLC)?
A: > 100 µM

Q: And the TGI (HOP-92 NSCLC)?
A: 32.4 µM

Q: What about the TGI (HS 578T breast) of the same compound?
A: 76.9 µM

Q: And the TGI (HT29 colon)?
A: > 100 µM

Q: What about the TGI (IGROV1 ovarian) of the same compound?
A: 56.2 µM

Q: And the TGI (K-562 leukemia)?
A: > 100 µM

Q: What about the TGI (KM12 colon) of the same compound?
A: > 100 µM

Q: And the TGI (LOX IMVI melanoma)?
A: 29.2 µM

Q: And the TGI (M14 melanoma)?
A: > 100 µM

Q: And the TGI (MALME-3M melanoma)?
A: 79 µM

Q: What about the TGI (MDA-MB-231 breast) of the same compound?
A: 34.2 µM

Q: What about the TGI (MDA-MB-435) of the same compound?
A: > 100 µM

Q: And the TGI (MDA-N)?
A: > 100 µM

Q: And the TGI (MOLT-4 leukemia)?
A: > 100 µM

Q: And the TGI (NCI-H226 lung)?
A: 82.7 µM

Q: And the TGI (NCI-H23 lung)?
A: 93.6 µM

Q: And the TGI (NCI-H460 lung)?
A: > 100 µM

Q: What about the TGI (NCI-H522 lung) of the same compound?
A: 40.5 µM

Q: And the TGI (NCI/ADR-RES ovarian)?
A: 45.1 µM

Q: And the TGI (OVCAR-3 ovarian)?
A: > 100 µM

Q: And the TGI (OVCAR-4 ovarian)?
A: 99.4 µM

Q: What about the TGI (OVCAR-5 ovarian) of the same compound?
A: > 100 µM

Q: What about the TGI (OVCAR-8 ovarian) of the same compound?
A: 28.4 µM

Q: And the TGI (PC-3 prostate)?
A: 46.5 µM

Q: What about the TGI (RPMI-8226 leukemia) of the same compound?
A: > 100 µM

Q: What about the TGI (RXF 393 renal) of the same compound?
A: 68.7 µM

Q: And the TGI (SF-268 CNS)?
A: > 100 µM

Q: And the TGI (SF-295 CNS)?
A: > 100 µM

Q: And the TGI (SK-MEL-2 melanoma)?
A: > 100 µM

Q: What about the TGI (SK-MEL-28 melanoma) of the same compound?
A: > 100 µM

Q: And the TGI (SK-MEL-5 melanoma)?
A: > 100 µM

Q: And the TGI (SK-OV-3 ovarian)?
A: > 100 µM

Q: What about the TGI (SN12C renal) of the same compound?
A: > 100 µM

Q: What about the TGI (SNB-19 CNS) of the same compound?
A: > 100 µM

Q: What about the TGI (SNB-75 CNS) of the same compound?
A: 89.4 µM

Q: What about the TGI (SW-620 colon) of the same compound?
A: 66.8 µM

Q: What about the TGI (T-47D breast) of the same compound?
A: 57.1 µM

Q: And the TGI (TK-10 renal)?
A: > 100 µM

Q: And the TGI (U251 CNS)?
A: 73.5 µM

Q: What about the TGI (UACC-257 melanoma) of the same compound?
A: > 100 µM

Q: What about the TGI (UACC-62 melanoma) of the same compound?
A: > 100 µM

Q: What about the TGI (UO-31 renal) of the same compound?
A: > 100 µM

Q: `Cn1nnc2c3c(N(CCO)CCO)ccnc3ccc21` was tested. Which TGI (786-0 renal) did it give?
A: > 100 µM

Q: What about the TGI (A549 NSCLC) of the same compound?
A: > 100 µM

Q: And the TGI (ACHN renal)?
A: > 100 µM

Q: What about the TGI (BT-549 breast) of the same compound?
A: > 100 µM

Q: What about the TGI (CAKI-1 renal) of the same compound?
A: > 100 µM

Q: What about the TGI (CCRF-CEM leukemia) of the same compound?
A: > 100 µM

Q: What about the TGI (COLO 205 colon) of the same compound?
A: > 100 µM

Q: What about the TGI (DU-145 prostate) of the same compound?
A: > 100 µM

Q: What about the TGI (EKVX NSCLC) of the same compound?
A: > 100 µM

Q: What about the TGI (HCC-2998 colon) of the same compound?
A: 91.2 µM

Q: And the TGI (HCT-116 colon)?
A: > 100 µM

Q: What about the TGI (HCT-15 colon) of the same compound?
A: > 100 µM

Q: And the TGI (HOP-62 NSCLC)?
A: > 100 µM

Q: What about the TGI (HS 578T breast) of the same compound?
A: > 100 µM

Q: What about the TGI (HT29 colon) of the same compound?
A: > 100 µM

Q: And the TGI (IGROV1 ovarian)?
A: > 100 µM

Q: What about the TGI (K-562 leukemia) of the same compound?
A: > 100 µM

Q: What about the TGI (KM12 colon) of the same compound?
A: > 100 µM

Q: And the TGI (LOX IMVI melanoma)?
A: > 100 µM

Q: What about the TGI (M14 melanoma) of the same compound?
A: > 100 µM

Q: And the TGI (MALME-3M melanoma)?
A: > 100 µM

Q: What about the TGI (MCF7 breast) of the same compound?
A: > 100 µM

Q: And the TGI (MDA-MB-231 breast)?
A: > 100 µM

Q: What about the TGI (MDA-MB-435) of the same compound?
A: > 100 µM

Q: What about the TGI (MDA-N) of the same compound?
A: > 100 µM

Q: What about the TGI (MOLT-4 leukemia) of the same compound?
A: > 100 µM

Q: And the TGI (NCI-H23 lung)?
A: > 100 µM

Q: And the TGI (NCI-H460 lung)?
A: > 100 µM

Q: And the TGI (NCI/ADR-RES ovarian)?
A: > 100 µM

Q: What about the TGI (OVCAR-3 ovarian) of the same compound?
A: > 100 µM

Q: And the TGI (OVCAR-4 ovarian)?
A: > 100 µM

Q: What about the TGI (OVCAR-5 ovarian) of the same compound?
A: > 100 µM

Q: And the TGI (OVCAR-8 ovarian)?
A: > 100 µM

Q: What about the TGI (PC-3 prostate) of the same compound?
A: > 100 µM

Q: What about the TGI (RXF 393 renal) of the same compound?
A: > 100 µM

Q: What about the TGI (SF-268 CNS) of the same compound?
A: > 100 µM

Q: What about the TGI (SF-295 CNS) of the same compound?
A: > 100 µM

Q: And the TGI (SF-539 CNS)?
A: > 100 µM

Q: What about the TGI (SK-MEL-2 melanoma) of the same compound?
A: > 100 µM

Q: What about the TGI (SK-MEL-5 melanoma) of the same compound?
A: > 100 µM

Q: And the TGI (SK-OV-3 ovarian)?
A: > 100 µM

Q: And the TGI (SN12C renal)?
A: > 100 µM

Q: And the TGI (SNB-19 CNS)?
A: > 100 µM

Q: And the TGI (SNB-75 CNS)?
A: > 100 µM

Q: What about the TGI (SR leukemia) of the same compound?
A: > 100 µM

Q: What about the TGI (SW-620 colon) of the same compound?
A: > 100 µM

Q: And the TGI (T-47D breast)?
A: > 100 µM

Q: And the TGI (TK-10 renal)?
A: > 100 µM

Q: What about the TGI (UACC-257 melanoma) of the same compound?
A: > 100 µM

Q: What about the TGI (UACC-62 melanoma) of the same compound?
A: > 100 µM

Q: What about the TGI (UO-31 renal) of the same compound?
A: > 100 µM
